Common to all, as to type: cell-based
The target in series [1] is T1, human H4 receptor (Homo sapiens, UniProt Q9H3N8).
T1 construct: expressed in transfected cells; host or cells: HEKf cells infected with baculovirus
Kind of series: H4 Antagonist Functional cAMP Gi Assay. Particulars: HEKf cells expressing human H4 receptor, functional antagonist pKb by Cheng-Prusoff vs histamine; for Kb: read-out: Human H4 cAMP fpKb (converted). On the procedure: HEKf cells were infected overnight using baculovirus expressing the human H4 receptor, then centrifuged at 1,200 rpm for 5 min, frozen in cell freezing medium (Sigma) and stored at −150° C. On the day of assay, the cells were thawed and resuspended in HBSS with 500 nM IBMX to achieve a density of 1,500 cells/well. H4 ligands were prepared in DMSO and stamped by LabCyte ECHO acoustic dispensing at 25 nL in low volume plates. 10 μL/well cells were plated in the presence of 1 μM forskolin, subjected to centrifugation at 1,200 rpm for 1 min and incubated for 30 min prior to addition of Cisbio cAMP detection reagents to a total volume 20 μL/well. […] Following detection reagent addition and shaking at room temperature for 60 min, cAMP accumulation was measured using HTRF on a PheraStar plate reader. EC50 values were generated using a 4-parameter logistical fit equation to quantify agonist potencies. Functional antagonist affinity values were generated using the Cheng-Prusoff equation to calculate a pKb value using the antagonist assay data.

Series [2] has as its target T1, human H4 receptor. Kind of series: H4 Antagonist Functional Dynamic Mass Redistribution Assay. To be noted: HEKf cells expressing human H4 receptor, functional antagonist pKb by Cheng-Prusoff vs histamine EC80; for Kb: read-out: Human H4 DMR fpKb (converted). The procedure: HEKf cells were infected using baculovirus expressing the human H4 receptor, plated into fibronectin-coated EPIC plates at a density of 10,000 cells/well and incubated overnight at 37° C. The medium on cells was changed to 30 μL HBSS with 20 mM HEPES per well and 30 nL DMSO were added per well by LabCyte ECHO acoustic dispensing. Following 2 h equilibration at room temperature, 30 nL of H4 ligands prepared in DMSO were stamped by LabCyte ECHO acoustic dispensing into seeded EPIC plates and cellular dynamic mass redistribution was monitored using a Corning EPIC plate reader. Following 45 min measurement, 30 nL/well of histamine EC80 was added and monitored to obtain antagonist assay data. Maximum baseline-corrected responses in pm were used to generate concentration response curves. EC50 values were generated using a 4-parameter logistical fit equation to quantify agonist potencies. Functional antagonist affinity values were generated using the Cheng-Prusoff equation to calculate a pKb value using the antagonist assay data.

Series [3] deals with T2, hERG (Homo sapiens, UniProt Q12809). Kind of series: hERG single-concentration assay (QPatch automated patch clamp, CHO cells, 30 μM). To be noted: CHO cells stably expressing hERG. An excerpt:
(§1) Series resistance (4-15 MΩ) was compensated by >80%.
On the technique in general: hERG is a cardiac potassium channel; its block is linked to QT prolongation.

In series [4] the target is T2, hERG. Kind of series: hERG pIC50 assay (QPatch automated patch clamp, CHO cells, 1, 3, 10 and 30 μM). Particulars: CHO cells expressing hERG, 1-30 μM, ≤4.0 = fails to reach >40% block at 30 μM.
Excerpt: as §1

T1 sequence (Q9H3N8 whole entry): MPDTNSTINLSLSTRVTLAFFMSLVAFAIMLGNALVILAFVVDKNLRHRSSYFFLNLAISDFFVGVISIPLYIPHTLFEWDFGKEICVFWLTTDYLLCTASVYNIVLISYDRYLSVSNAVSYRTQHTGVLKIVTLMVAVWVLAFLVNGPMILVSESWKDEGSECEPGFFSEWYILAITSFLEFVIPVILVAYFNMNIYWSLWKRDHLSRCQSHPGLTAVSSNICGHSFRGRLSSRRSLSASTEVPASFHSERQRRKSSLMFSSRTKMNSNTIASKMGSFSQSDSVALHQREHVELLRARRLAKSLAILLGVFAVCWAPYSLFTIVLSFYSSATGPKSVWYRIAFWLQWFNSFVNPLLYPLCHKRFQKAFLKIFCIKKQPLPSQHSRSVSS
T2 sequence (Q12809 whole entry): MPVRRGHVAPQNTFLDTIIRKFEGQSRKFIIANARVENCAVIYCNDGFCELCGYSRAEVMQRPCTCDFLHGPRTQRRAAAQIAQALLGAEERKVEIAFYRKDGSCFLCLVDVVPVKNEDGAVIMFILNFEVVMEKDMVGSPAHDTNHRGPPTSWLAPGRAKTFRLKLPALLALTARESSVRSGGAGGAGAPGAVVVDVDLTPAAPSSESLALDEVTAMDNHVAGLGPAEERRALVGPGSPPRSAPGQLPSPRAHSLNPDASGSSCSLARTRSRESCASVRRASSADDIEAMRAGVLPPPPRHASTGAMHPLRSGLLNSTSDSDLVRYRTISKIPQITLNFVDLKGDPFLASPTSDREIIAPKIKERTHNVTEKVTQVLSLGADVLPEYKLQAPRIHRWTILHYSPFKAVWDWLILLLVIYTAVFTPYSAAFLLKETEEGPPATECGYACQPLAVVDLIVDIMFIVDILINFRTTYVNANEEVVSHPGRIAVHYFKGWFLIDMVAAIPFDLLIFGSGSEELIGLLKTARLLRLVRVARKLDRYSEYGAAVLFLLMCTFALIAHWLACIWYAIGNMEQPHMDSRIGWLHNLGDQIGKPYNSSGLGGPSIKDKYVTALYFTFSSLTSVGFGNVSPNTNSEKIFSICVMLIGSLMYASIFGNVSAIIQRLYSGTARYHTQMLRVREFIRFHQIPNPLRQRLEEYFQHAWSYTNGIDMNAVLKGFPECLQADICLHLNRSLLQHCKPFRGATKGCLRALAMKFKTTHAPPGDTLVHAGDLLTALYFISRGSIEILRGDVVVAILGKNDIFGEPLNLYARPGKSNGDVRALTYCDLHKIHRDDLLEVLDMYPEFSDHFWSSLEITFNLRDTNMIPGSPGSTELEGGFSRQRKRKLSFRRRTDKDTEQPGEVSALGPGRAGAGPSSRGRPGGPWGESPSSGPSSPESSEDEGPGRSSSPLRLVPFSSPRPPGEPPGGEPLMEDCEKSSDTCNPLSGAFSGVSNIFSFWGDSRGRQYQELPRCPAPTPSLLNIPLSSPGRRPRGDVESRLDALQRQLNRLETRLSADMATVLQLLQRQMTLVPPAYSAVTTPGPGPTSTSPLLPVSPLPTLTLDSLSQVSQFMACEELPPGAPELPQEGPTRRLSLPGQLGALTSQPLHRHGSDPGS

The term inhibition denotes the share of the control response that was lost under treatment. Read a low inhibition as a response near the control. `CN[C@@H]1CCN(c2ncnc3c2OCC[C@@H](C(C)C)N3)C1` [Example 14-1, (R)-1-((S)-8-Isopropyl-6,7,8,9-tetrahydropyrimido[5,4-b][1,4]oxazepin-4-yl)-N-methylpyrrolidin-3-amine]: the results for the Kb in series [1] and in series [2] were 3.16 nM and 0.794 nM, respectively. This compound came in with an inhibition at 30 µM in series [3] of 41%.
For the compound `CN[C@@H]1CCN(c2nc(N)nc3c2OCC(C(C)C)CN3)C1` (stereo partly drawn) [Example 11-9, 7-Isopropyl-4-((R)-3-(methylamino)pyrrolidin-1-yl)-6,7,8,9-tetrahydropyrimido[5,4-b][1,4]oxazepin-2-amine], the Kb in series [1] is 63.1 nM; in series [2], 50.1 nM.
With `CN[C@@H]1CCN(c2nc(N)nc3c2OCC2CCCC2N3)C1` (stereo partly drawn) [Example 17-1, 4-[(3R)-3-(methylamino)pyrrolidin-1-yl]-6a,7,8,9,9a, 10-hexahydro-6H-cyclopenta[e]pyrimido[5,4-b][1,4]oxazepin-2-amine], the Kb in series [2] is 12.6 nM. The compound also showed an inhibition at 30 µM in series [3] of 29%.
Consider `CN[C@@H]1CCN(c2nc(N)nc3c2OCC2(CC(F)(F)C2)N3)C1` [Example 17-15, 3,3-difluoro-4′-[(3R)-3-(methylamino)pyrrolidin-1-yl]-6′H,8′H-spiro[cyclobutane-1,7′-pyrimido[5,4-b][1,4]oxazin]-2′-amine], for which the Kb in series [2] is 7.94 nM.
Turning to `CNC1CN(c2nc(N)nc3c2OCC2CCCC2N3)C1` (stereo not shown) [Example 17-3, 4-[3-(methylamino)azetidin-1-yl]-6a, 7,8,9,9a, 10-hexahydro-6H-cyclopenta[e]pyrimido[5,4-b][1,4]oxazepin-2-amine], the Kb in series [2] was 31.6 nM. Also, testing at 30 µM in series [3] gave an inhibition of 42%.
Regarding `CN[C@@H]1CCN(c2nc(N)nc3c2OCC[C@@H](C)N3)C1` [Example 11-2, (R)-8-Methyl-4-((R)-3-(methylamino)pyrrolidin-1-yl)-6,7,8,9-tetrahydropyrimido[5,4-b][1,4]oxazepin-2-amine], the Kb in series [1] was 2.51 nM; in series [2], 5.01 nM. In series [3], this compound showed an inhibition at 30 µM of 13%.
For orientation: IC50 means the concentration that inhibits the measured activity by half. `CC[C@@H]1CCOc2c(nc(N)nc2N2CC[C@@H](NC)C2)N1` [Example 11-4, (R)-8-Ethyl-4-((R)-3-(methylamino)pyrrolidin-1-yl)-6,7,8,9-tetrahydropyrimido[5,4-b][1,4]oxazepin-2-amine]: the Kb in series [1] is 0.631 nM; in series [2], 1.26 nM. The compound also showed an IC50 in series [4] of no less than 100000 nM. This compound also returned an inhibition at 30 µM in series [3] of 39%.
As for `CN1CCN(C(=O)c2cc3cc(Cl)ccc3[nH]2)CC1` [JNJ-7777120, reference compound], in series [4], half-maximal inhibition (IC50) required 3980 nM.
As to `CN[C@@H]1CCN(c2nc(N)nc3c2OCC[C@H](C)N3)C1` [Example 11-3, (S)-8-Methyl-4-((R)-3-(methylamino)pyrrolidin-1-yl)-6,7,8,9-tetrahydropyrimido[5,4-b][1,4]oxazepin-2-amine], the Kb in series [1] is 31.6 nM; in series [2] it was 10 nM.
Turning to `CN[C@@H]1CCN(c2nc(N)nc3c2OCC2(CCC2)N3)C1` [Example 17-4, 4′-[(3R)-3-(methylamino)pyrrolidin-1-yl]-6′H,8′H-spiro[cyclobutane-1,7′-pyrimido[5,4-b][1,4]oxazin]-2′-amine], the Kb in series [2] was 2 nM.
Consider `CC[C@]1(C)COc2c(nc(N)nc2N2CC[C@@H](NC)C2)N1` [Example 17-14, 7-ethyl-7-methyl-4-[(3R)-3-(methylamino)pyrrolidin-1-yl]-7,8-dihydro-6H-pyrimido[5,4-b][1,4]oxazin-2-amine], for which, in series [2], the Kb was 7.94 nM.
Consider `CC(C)[C@@H]1COc2c(nc(N)nc2N2CC[C@@H](N)C2)N1` [Example 2-2, (R)-4-((R)-3-Aminopyrrolidin-1-yl)-7-isopropyl-7,8-dihydro-6H-pyrimido[5,4-b][1,4]oxazin-2-amine], for which the Kb in series [1] is 0.631 nM. Further, the IC50 in series [4] is no less than 100000 nM.
`CN[C@@H]1CCN(c2ncnc3c2OCC2(CC(F)(F)C2)N3)C1` [Example 17-13, (3R)-1-(3,3-difluoro-6′H,8′H-spiro[cyclobutane-1,7′-pyrimido[5,4-b][1,4]oxazin]-4′-yl)-N-methylpyrrolidin-3-amine]: the Kb in series [2] was 3.98 nM.
Consider `CN[C@@H]1CCN(c2nc(N)nc3c2OC[C@@H](C(C)C)N3)C1` [Example 1-4, (R)-7-Isopropyl-4-((R)-3-(methylamino)pyrrolidin-1-yl)-7,8-dihydro-6H-pyrimido[5,4-b][1,4]oxazin-2-amine], for which the Kb in series [1] was 0.794 nM. Further, in series [4], the IC50 was no less than 100000 nM. The compound also registered an inhibition at 30 µM in series [3] of 20%.
As to `CN[C@@H]1CCN(c2nc(N)nc3c2OCC[C@@H](C(C)C)N3)C1` [Example 11-5, (S)-8-Isopropyl-4-((R)-3-(methylamino)pyrrolidin-1-yl)-6,7,8,9-tetrahydropyrimido[5,4-b][1,4]oxazepin-2-amine], the Kb in series [1] was 0.398 nM. Further, in series [4], the IC50 was no less than 100000 nM. In series [3], the inhibition at 30 µM came to 21%.
Consider `CC(C)[C@@H]1CCOc2c(nc(N)nc2N2CC[C@@H](N)C2)N1` [Example 12-1, (S)-4-((R)-3-Aminopyrrolidin-1-yl)-8-isopropyl-6,7,8,9-tetrahydropyrimido[5,4-b][1,4]oxazepin-2-amine], for which the Kb is 0.631 nM in series [1] and 2.51 nM in series [2]. The compound further had an IC50 in series [4] of no less than 100000 nM.
In the case of `CN[C@@H]1CCN(c2nc(N)nc3c2OCC(C)(C)CN3)C1` [Example 17-5, 7,7-dimethyl-4-[(3R)-3-(methylamino)pyrrolidin-1-yl]-6,7,8,9-tetrahydropyrimido[5,4-b][1,4]oxazepin-2-amine], in series [2], the Kb was 200 nM.
Regarding `CC(C)c1cc(N2CC[C@@H](N)C2)nc(N)n1` [JNJ-39758979, reference compound], in series [1], the “Human H4 cAMP fpKb” value amounted to 8.1. For the same compound, the “Human H4 DMR fpKb” value in series [2] came out at 8.5.
For `CCC1(C)CCOc2c(ncnc2N2CC[C@@H](NC)C2)N1` (stereo partly drawn) [Example 17-9, (3R)-1-(8-ethyl-8-methyl-6,7,8,9-tetrahydropyrimido[5,4-b][1,4]oxazepin-4-yl)-N-methylpyrrolidin-3-amine], the Kb in series [2] was 39.8 nM.
With `CNC1CN(c2nc(N)nc3c2OC[C@@H](C(C)C)N3)C1` [Example 3-2, (R)-7-Isopropyl-4-(3-(methylamino)azetidin-1-yl)-7,8-dihydro-6H-pyrimido[5,4-b][1,4]oxazin-2-amine], the Kb in series [1] is 1.26 nM. The compound also showed an IC50 in series [4] of no less than 100000 nM. The same compound came in with an inhibition at 30 µM in series [3] of 26%.
Consider `CNC1CN(c2nc(N)nc3c2OCC[C@@H](C(C)C)N3)C1` [Example 13-1, (S)-8-Isopropyl-4-(3-(methylamino)azetidin-1-yl)-6,7,8,9-tetrahydropyrimido[5,4-b][1,4]oxazepin-2-amine], for which the Kb in series [1] was 1 nM; in series [2], 1.58 nM. Further, the half-maximal inhibitory concentration (IC50) in series [4] is no less than 100000 nM. Further, in series [3], at 30 µM the inhibition was 15%.
For `CC[C@@H]1CCOc2c(nc(N)nc2N2CC[C@@H](N)C2)N1` [Example 17-7, 4-[(3R)-3-aminopyrrolidin-1-yl]-8-ethyl-6,7,8,9-tetrahydropyrimido[5,4-b][1,4]oxazepin-2-amine], in series [2], the Kb was 10 nM.

Source of the values: patent US20240317775A1, “H4 Antagonist Compounds” (HEPTARES THERAPEUTICS LIMITED, priority 2020, published 2024).
